Laboratory results as given in PubChem BioAssay AID602326 (NMMLSC, 2012).
Active and inactive are the calls of the source. No rule for the calls is given here.

Molecular target: Lethal factor (Bacillus anthracis) (UniProt P15917)
Assay: Bacillus anthracis lethal factor protease inhibitors, multiplex microsphere substrate cleavage, dose response confirmation (AID 602326)
Conditions: multiplex microsphere protease substrate cleavage assay

Sequence of Lethal factor (Bacillus anthracis) (P15917 whole entry, looked up): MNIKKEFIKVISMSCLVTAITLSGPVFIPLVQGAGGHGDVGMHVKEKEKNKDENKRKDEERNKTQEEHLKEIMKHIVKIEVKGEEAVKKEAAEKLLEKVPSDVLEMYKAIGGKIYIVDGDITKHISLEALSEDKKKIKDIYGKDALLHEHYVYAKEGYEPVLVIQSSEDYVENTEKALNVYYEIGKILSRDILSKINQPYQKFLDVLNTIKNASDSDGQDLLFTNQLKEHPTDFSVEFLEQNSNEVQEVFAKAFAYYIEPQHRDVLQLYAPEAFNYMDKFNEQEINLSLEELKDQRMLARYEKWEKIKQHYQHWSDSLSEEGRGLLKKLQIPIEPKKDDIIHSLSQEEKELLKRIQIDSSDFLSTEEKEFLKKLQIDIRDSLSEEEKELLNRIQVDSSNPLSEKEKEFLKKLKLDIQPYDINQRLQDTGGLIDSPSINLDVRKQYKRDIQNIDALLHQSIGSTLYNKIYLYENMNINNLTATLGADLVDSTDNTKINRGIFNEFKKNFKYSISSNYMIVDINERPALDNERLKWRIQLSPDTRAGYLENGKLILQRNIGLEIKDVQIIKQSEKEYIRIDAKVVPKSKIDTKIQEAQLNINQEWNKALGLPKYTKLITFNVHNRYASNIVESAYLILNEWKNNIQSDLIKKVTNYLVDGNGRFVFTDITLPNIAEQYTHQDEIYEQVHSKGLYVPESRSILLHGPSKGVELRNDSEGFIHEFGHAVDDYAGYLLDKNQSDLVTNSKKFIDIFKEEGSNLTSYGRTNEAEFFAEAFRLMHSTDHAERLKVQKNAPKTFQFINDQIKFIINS

Compound	EC50
O=c1c(/C=C(\O)c2ccccc2)nc2ccccc2n1-c1ccccc1	> 20 µM (inactive)
Oc1[nH]c(N=C2N=c3ccccc3=N2)c2ccccc12	> 20 µM (inactive)
